Data from patent US20040214799A1, “Cancerous metastasis inhibitors containing carbacyclic phosphatidic acid derivatives” (priority 2001, published 2004).

What was measured:
MM1 cells = assay: In vitro invasion assay, LPA-induced invasion of MM1 cells across mesothelial cell monolayer; type: cell-based, rat; conditions: 25 μM LPA; for invasion suppressing activity on LPA-induced invasion, carba-cPA at low concentration (in words): 0.5 μM, 1 μM or 10 μM carba-cPA
Protocol: The abdomen of a male DONRYU rat (300 g, NIPPON BIO-SUPP. CENTER) was opened aseptically. The thus obtained mesenterium was treated with 0.25% trypsin at 37° C. for 15 minutes, filtrated with a 150 μm stainless mesh, and then centrifuged to collect mesothelial cells. The cells were cultured under conditions of 37° C. and 5% CO2 in a medium which was obtained by adding 10% FBS to Eagle's MEMI (Nissui) supplemented with Eagle's MEM amino acid vitamin medium (Nissui) in a volume twice as great as that of the MEMI. A mesothelial cell monolayer which had reached a confluent density after 1 week of culturing was used for invasion assay.
The MM1 cells, which are highly invasive clones of rat ascites hepatoma cells (AH-130), were established by Mukai et al., (Int. J. Cancer : 81, 918-922 (1999)), and was cultured under the same conditions as those for mesothelial cells.
In vitro invasion assay was developed by Akedo et al (Akedo, H et al., Cancer Res. 46, 2416-2422 (1986)). MM1 cells were multi-layer-cultured on the mesothelial cell layer, which had been grown to reach a confluent density, in the presence of 10% FBS or 25 μM LPA (SIGMA). 25 μM cPA was then added. The cells were cultured under conditions of 37° C. and 5% CO2 for 20 hours, and then fixed with 10% formalin. The number of colonies of MM1 cells that had invaded was counted under a phase-contrast microscope (FIG. 3).
cPA and LPA were ice-cooled in PBS containing 0.1% fatty-acid free BSA (SIGMA), ultrasonicated, emulsified, stored at −20° C., and then used.
0.5 μM, 1 μM and 10 μM carba-cPA were added to MM1 cells, and then in vitro invasion assay was performed similarly to (1-1) in the presence of 25 μM LPA.
The following reagents were respectively added to an in vitro invasion assay system so as to examine their effects on MM1 cell invasion in the presence of 25 μM LPA: Forskolin (Wako) which directly activates adenylate cyclase (cAMP synthase); cholera toxin (CTX) (GIBCO BRL) which prevent the deactivation of G protein (Gs) which activates adenylate cyclase; Bt2cAMP (nacalai tesque) which can pass through the membrane and functions in a manner similar to that of cAMP when it enters the cell; or isobutylmethylxanthine (IBMX, 3-isobutyl-1-methylxanthine) (SIGMA) which inhibits phosphodiesterase (cAMP degrading enzyme).

[1] = General state and body weight of B16-F0 melanoma-bearing mice; type: in vivo; conditions: for Body weight (g) day 0: day 0, mean ± S.D.; for Body weight (g) day 0 / Body weight (g) day 4 / Body weight (g) day 7 / Body weight (g) day 11 / Body weight (g) day 14: N 6; for Body weight (g) day 4: day 4, mean ± S.D.; for Body weight (g) day 7: day 7, mean ± S.D.; for Body weight (g) day 11: day 11, mean ± S.D.; for Body weight (g) day 14: day 14, mean ± S.D.; for body weight compared with the medium group at each measurement (in words): days 0, 4, 7, 11, 14; for effect on changes in body weight (in words): 0.001-0.008 mg/body i.v., days 0 to 14
Protocol: The mixture was administered via the caudal vein. The number of grafted cells was 5×10^5 cells/body. The dose of the test substance was 0.001, 0.004 or 0.008 mg/body, and the dose of the positive control substance was 0.008 mg/body.
Observation period ranged from days 0 to 14 after the administration of the test substance. Life and death were confirmed every day during this period, and the general state was observed. Body weight measurement was performed twice a week.
The representative value of each test group was denoted as mean±standard deviation (mean±S.D.). Differences in mean values were examined as follows. The number of metastatic nodules was examined by Dunnett's multiple comparison test between the medium group and the cPA-19 group, and between the medium group and the cPA-20 group. The same was examined by the Student's T-test between the medium group and cPA-5 group. The number of metastatic lesions was examined by the Wilcoxon test using the medium group as a control. The number of animals having metastatic nodules or metastatic lesions was examined by Fisher's extract probability test using the medium group as a control. The significance levels were 1% and 5%.

Compound | suppression of LPA-induced invasion (in words) (MM1 cells; 25 μM cPA derivative, 20 hours) | Body weight (g) day 0 ([1]; 0.008 mg/body i.v.) [g] | Body weight (g) day 4 ([1]; 0.008 mg/body i.v.) [g] | Body weight (g) day 7 ([1]; 0.008 mg/body i.v.) [g] | Body weight (g) day 11 ([1]; 0.008 mg/body i.v.) [g] | Body weight (g) day 14 ([1]; 0.008 mg/body i.v.) [g] | body weight compared with the medium group at each measurement (in words) [1] | invasion suppressing activity on LPA-induced invasion, carba-cPA at low concentration (in words) (MM1 cells) | Body weight (g) day 0 ([1]; 0.001 mg/body i.v.) [g] | Body weight (g) day 4 ([1]; 0.001 mg/body i.v.) [g] | Body weight (g) day 7 ([1]; 0.001 mg/body i.v.) [g] | Body weight (g) day 11 ([1]; 0.001 mg/body i.v.) [g] | Body weight (g) day 14 ([1]; 0.001 mg/body i.v.) [g] | Body weight (g) day 0 ([1]; 0.004 mg/body i.v.) [g] | Body weight (g) day 4 ([1]; 0.004 mg/body i.v.) [g] | Body weight (g) day 7 ([1]; 0.004 mg/body i.v.) [g] | Body weight (g) day 11 ([1]; 0.004 mg/body i.v.) [g] | Body weight (g) day 14 ([1]; 0.004 mg/body i.v.) [g] | effect on changes in body weight (in words) [1]
CCCCCCCCCCCCCCCC(=O)OC[C@@H]1COP(=O)(O)O1 [cPA-5, Pal-cPA, reference compound] | suppressed | 15.9 ± 0.6 | 15.8 ± 0.9 | 16.2 ± 1.0 | 17.0 ± 0.8 | 17.4 ± 1.0 | no significant difference | – | – | – | – | – | – | – | – | – | – | – | –
carba-Ole-cPA [cPA-19] | – | 15.9 ± 0.6 | 15.4 ± 0.5 | 15.9 ± 0.5 | 16.8 ± 0.5 | 17.0 ± 0.4 | no significant difference | stronger invasion suppressing activity than cPA-18 | 15.9 ± 0.6 | 15.5 ± 0.5 | 15.8 ± 0.7 | 16.5 ± 1.0 | 17.1 ± 1.2 | 15.9 ± 0.6 | 16.0 ± 0.5 | 16.1 ± 0.6 | 16.7 ± 0.6 | 17.6 ± 0.9 | no effect on changes in body weight
carba-ΔPal-cPA [cPA-20] | – | 15.9 ± 0.5 | 16.1 ± 0.8 | 16.3 ± 0.8 | 17.0 ± 0.9 | 17.7 ± 0.8 | no significant difference | stronger invasion suppressing activity than cPA-18 | 15.9 ± 0.6 | 15.5 ± 0.3 | 16.1 ± 0.6 | 16.8 ± 0.4 | 17.4 ± 0.6 | 16.0 ± 0.6 | 16.0 ± 0.7 | 16.2 ± 0.6 | 16.9 ± 0.7 | 17.5 ± 0.8 | no effect on changes in body weight
